Counter-ions that a name gives are not always drawn.
Key:
[1] = target: T1, angiotensin converting enzyme (ACE) (Oryctolagus cuniculus, UniProt P12822); experiment: in vitro evaluation of inhibitory effects on ACE activity (method of Cushman); type: biochemical; settings: ACE isolated from rabbit lungs; for IC50: Table 1, in vitro
T1 construct: Using ACE isolated from rabbit lungs; from tissue; host or cells: rabbit lungs
T1 sequence (P12822 34-1310): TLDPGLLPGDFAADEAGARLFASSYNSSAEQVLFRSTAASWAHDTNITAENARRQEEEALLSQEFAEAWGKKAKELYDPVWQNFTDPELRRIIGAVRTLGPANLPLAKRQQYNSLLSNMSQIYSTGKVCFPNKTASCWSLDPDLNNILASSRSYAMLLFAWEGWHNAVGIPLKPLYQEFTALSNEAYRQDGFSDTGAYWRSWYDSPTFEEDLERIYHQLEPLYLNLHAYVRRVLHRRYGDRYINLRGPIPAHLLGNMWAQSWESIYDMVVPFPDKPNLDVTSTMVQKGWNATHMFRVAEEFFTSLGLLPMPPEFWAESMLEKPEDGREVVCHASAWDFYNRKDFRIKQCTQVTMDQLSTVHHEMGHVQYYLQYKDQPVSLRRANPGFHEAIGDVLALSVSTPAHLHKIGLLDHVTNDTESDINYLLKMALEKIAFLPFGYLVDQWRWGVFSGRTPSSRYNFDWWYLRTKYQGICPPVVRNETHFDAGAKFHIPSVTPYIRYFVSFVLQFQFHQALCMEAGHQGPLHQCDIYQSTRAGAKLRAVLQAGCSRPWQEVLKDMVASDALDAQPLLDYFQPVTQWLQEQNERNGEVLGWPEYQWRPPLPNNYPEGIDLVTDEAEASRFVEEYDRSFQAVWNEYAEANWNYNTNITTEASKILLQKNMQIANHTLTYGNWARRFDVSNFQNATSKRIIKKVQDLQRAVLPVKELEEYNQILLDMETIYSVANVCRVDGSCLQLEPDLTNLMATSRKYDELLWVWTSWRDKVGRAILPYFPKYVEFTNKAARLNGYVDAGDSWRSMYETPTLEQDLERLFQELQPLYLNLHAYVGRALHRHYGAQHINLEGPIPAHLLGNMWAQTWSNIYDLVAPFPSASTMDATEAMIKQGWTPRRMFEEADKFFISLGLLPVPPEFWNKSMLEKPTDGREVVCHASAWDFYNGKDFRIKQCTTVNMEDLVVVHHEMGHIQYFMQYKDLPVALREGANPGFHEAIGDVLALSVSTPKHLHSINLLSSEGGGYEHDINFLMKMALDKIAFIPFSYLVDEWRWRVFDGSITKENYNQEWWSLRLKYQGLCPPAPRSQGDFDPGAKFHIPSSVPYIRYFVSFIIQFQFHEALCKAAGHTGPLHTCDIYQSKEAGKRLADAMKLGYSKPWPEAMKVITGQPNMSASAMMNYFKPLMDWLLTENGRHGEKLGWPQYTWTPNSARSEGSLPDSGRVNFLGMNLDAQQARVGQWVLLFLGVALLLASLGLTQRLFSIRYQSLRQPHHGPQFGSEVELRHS
Method: The efficacy of the compounds of the present invention can be tested by evaluating their inhibitory effects on the angiotensin converting enzyme (ACE). Using ACE isolated from rabbit lungs, in vitro evaluation of inhibitory effects on ACE activity was carried out according to the method of Cushman [Biochem. Pharmacol., 20, 1637(1971)]. […] Some of the compounds obtained in the other examples were also tested by in vitro evaluation of inhibitory effects on ACE activity and the results thus obtained are summarized in Table 1.

[2] = system: spontaneously occurring hypertensive rats (SHR); experiment: depressor effect after oral administration in spontaneously occurring hypertensive rats (SHR), systolic blood pressure of caudal artery; type: in vivo, rat; settings: 50 mg/kg oral, unanesthetized male SHR
Method: The compounds of the present invention can also be tested by evaluating their depressor effects. Such evaluation was carried out by using spontaneously occurring hypertensive rats (SHR). Male rats, aged 20 weeks or more, were fasted for 17 hours. Then, under an unanesthetized condition, the systolic blood pressure of their caudal artery was nonsurgically measured before medication as well as 2,4,6 and 24 hours after medication. Test compounds were orally administered to groups of 3-5 rats showing a systolic blood pressure of 180 mmHg or above.
When the compound of Example 10 was orally administered in a dose of 50 mg/kg, the blood pressure was reduced by 26, 34 and 46 mmHg after the lapse of 2, 4 and 6 hours, respectively.

O=C(O)CN1C(=O)C(NC(CCc2ccccc2)C(=O)O)CSc2ccccc21 (stereo not drawn) [Example 8, 3-(1-carboxy-3-phenylpropylamino)-5-carboxymethyl-2,3-dihydro-1,5-benzothiazepin-4(5H)-one]
inhibition at 0.01 µM ([1]; 0.01 μM, read-out: inhibited ACE activity): 14.8% | inhibition at 0.1 µM ([1]; 0.1 μM, read-out: inhibited ACE activity): 77.8%

CCOC(=O)C(CCc1ccccc1)NC1CSc2ccccc2N(CC(=O)O)C1=O.Cl (stereo not drawn) [Example 10, 5-carboxymethyl-3-(1-ethoxycarbonyl-3-phenylpropylamino)-2,3-dihydro-1,5-benzothiazepin-4(5H)-one hydrochloride]
depressor effect, persistence ([2]; 24 hours): found to persist even after 24 hours | blood pressure was reduced by ([2]; after 2 hours): 26 mmHg | blood pressure was reduced by ([2]; after 4 hours): 34 mmHg | blood pressure was reduced by ([2]; after 6 hours): 46 mmHg

CCOC(=O)C(C)NC1CSc2ccccc2N(CC(=O)O)C1=O (stereo not drawn) [Example 12, 5-carboxymethyl-3-(1-ethoxycarbonylethylamino)-2,3-dihydro-1,5-benzothiazepin-4(5H)-one hydrochloride]
IC50 [1]: 7000 nM

CC(NC1CSc2ccccc2N(CC(=O)O)C1=O)C(=O)O (stereo not drawn) [Example 13, 5-carboxymethyl-3-(1-carboxyethylamino)-2,3-dihydro-1,5-benzothiazepin-4(5H)-one hydrochloride]
IC50 [1]: 470 nM

CCOC(=O)CNC1CSc2ccccc2N(CC(=O)O)C1=O (stereo not drawn) [Example 15, 5-carboxymethyl-3-ethoxycarbonylmethylamino-2,3-dihydro-1,5-benzothiazepin-4(5H)-one hydrochloride]
IC50 [1]: > 100000 nM

O=C(O)CNC1CSc2ccccc2N(CC(=O)O)C1=O (stereo not drawn) [Example 16, 5-carboxymethyl-3-carboxymethylamino-2,3-dihydro-1,5-benzothiazepin-4(5H)-one hydrochloride]
IC50 [1]: 8200 nM

CCCCCCCCC(NC1CSc2ccccc2N(CC(=O)O)C1=O)C(=O)OCC (stereo not drawn) [Example 18, 5-carboxymethyl-3-(1-ethoxycarbonylnonylamino)-2,3-dihydro-1,5-benzothiazepin-4(5H)-one]
IC50 [1]: 160 nM

CCCCCCCCC(NC1CSc2ccccc2N(CC(=O)O)C1=O)C(=O)O (stereo not drawn) [Example 19, 5-carboxymethyl-3-(1-carboxynonylamino)-2,3-dihydro-1,5-benzothiazepin-4(5H)-one]
IC50 [1]: 10 nM
